This is an account of results in US10479814B2, “Adenosine receptor activation reagent and the uses of thereof” (Zhejiang Subtropical Crops Research Institute, priority 2014, dated 2019).

For experiment [1], the system named is A1 receptor. The conditions noted are these: cited from earlier work; for A1 selectivity: according to document record (Jacobson 1992); for selectivity to the A1 receptor (in words): existing A1 agonists.
Experiment [2] concerns pentylenetetrazole induced convulsion. Description: pentylenetetrazole induced convulsion in mouse. The experiment is classed as in vivo. The settings on record: antagonist ip 10 min before HEA 40 mg/kg, DPCPX 2 mg/kg, ZM241385 1 and 5 mg/kg. As for the experimental part:
Male ICR mouse, 18˜22 g; purchased from Animal Experiment Center of Wenzhou Medical University. Before experiment, animals were adapted to environment for at least 5 days. Kept at 25 °C, food and water were freely fed. Based on the weight, the healthy male ICR mice were randomly divided into control group (1% DMSO, ip), model group, CCPA group (0.1 mg·kg^−1, ip), HEA group (15 mg/kg, 40 mg/kg, 60 mg/kg), DPCPX group (2 mg·kg^−1, ip), ZM241385 group (1 mg·kg^−1, 5 mg·kg^−1, ip), DPCPX+HEA (2 mg·kg^−1+40 mg/kg, ip) group and ZM241385+HEA (1 mg·kg^−1+40 mg/kg, 5 mg·kg^−1+40 mg/kg ip) group.
The survival time and mortality after convulsion were respectively recorded for each group.

As for `OC[C@H]1O[C@@H](n2cnc3c(N[C@H]4CC5CCC4C5)ncnc32)[C@H](O)[C@@H]1O` (stereo partly shown) [S-ENBA], in experiment [1], the A1 selectivity entry is on record as “up to 4700 fold”.

Consider `Nc1nc(NCCc2ccc(O)cc2)nc2nc(-c3ccco3)nn12` [ZM241385], for which the entries for the “effect of antagonist on the anti-convulsion action of the HEA” value in experiment [2] and in experiment [2] (listed as Zm241385) were “no significant effect on the anti-convulsion effect of the HEA” and “no significant effect on the anti-convulsion action of the HEA”, respectively.

With `OC[C@H]1O[C@@H](n2cnc3c(NC4CCCCC4)ncnc32)[C@H](O)[C@@H]1O` [CHA], the “selectivity to the A1 receptor (in words)” value (from here on “selectivity … (in words)”) in experiment [1] is recorded as “strong selectivity to the A1 receptor”.

Consider `OC[C@H]1O[C@@H](n2cnc3c(NC4CCCC4)nc(Cl)nc32)[C@H](O)[C@@H]1O` [CCPA], for which, in experiment [1], the A1 selectivity is given as 1500 fold and the “selectivity … (in words)” value was “strong selectivity to the A1 receptor”.

Consider `OC[C@H]1O[C@@H](n2cnc3c(NC4CCCC4)ncnc32)[C@H](O)[C@@H]1O` [CPA], for which the “selectivity … (in words)” value in experiment [1] is given as “strong selectivity to the A1 receptor”.
